Source: ChEMBL document CHEMBL4706481, “Optimization and evaluation of novel tetrahydropyrido[4,3-d]pyrimidine derivatives as ATX inhibitors for cardiac and hepatic fibrosis” (Eur J Med Chem, 2020)
The source made the active and inactive calls. The rule behind the calls is not given here.

Key:
[1] = Antiproliferative activity against Wistar/Sprague-Dawley rat cardiac fibroblasts assessed as inhibition of cell proliferation at 10 uM measured after 24 hrs by MTT assay relative to control; type: functional, CF [Rat heart fibroblast]; conditions: Fibroblast
[2] = target: T1, Autotaxin (Homo sapiens, UniProt Q13822); test: Inhibition of glycosylated human ATX using FS-3 as substrate preincubated for 45 mins under shaking condition followed by substrate addition and measured after 45 mins by fluorescence assay
[3] = Antiproliferative activity against Sprague-Dawley rat T-HSC/Cl-6 assessed as inhibition of cell proliferation at 10 uM measured after 24 hrs by MTT assay relative to control; type: functional
[4] = Antiproliferative activity against Wistar/Sprague-Dawley rat cardiac fibroblasts assessed as inhibition of cell proliferation measured after 24 hrs by MTT assay; type: functional, CF [Rat heart fibroblast]; conditions: Fibroblast
[5] = Antiproliferative activity against Sprague-Dawley rat T-HSC/Cl-6 assessed as inhibition of cell proliferation measured after 24 hrs by MTT assay; type: functional; conditions: T-HSC/Cl-6, 24 h
[6] = target: T1, Autotaxin; test: Inhibition of human ATX using FS-3 as substrate measured after 30 mins by fluorescence plate reader assay
[7] = Antifibrotic activity against TGFbeta-induced fibrosis in mouse cardiac fibroblasts assessed as reduction in collagen content at 10 ug/ml pretreated with TGFbeta followed by compound treatment and measured after 12 hrs by SDS-PAGE analysis relative to control; type: functional, Cardiac fibroblast; parameters: scale not given: the % may be the effect or the level left; conditions: dose 10 µg/ml
[8] = tested on: Cardiac fibroblast; test: Antifibrotic activity against TGFbeta-induced fibrosis in mouse cardiac fibroblasts assessed as reduction in collagen content at 10 ug/ml pretreated with TGFbeta followed by compound treatment and measured after 12 hrs by SDS-PAGE analysis; type: functional; conditions: dose 10.0 µg/ml
[9] = tested on: Mus musculus; test: Antifibrotic activity against CCl4-induced fibrosis in Kunming mouse assessed as decrease in fiber accumulation at 20 mg/kg, po administered for 2 weeks post CCl-4 challenge by hematoxylin and eosin staining based light microscopic analysis; type: functional, organism-based
[10] = tested on: Mus musculus; test: Antifibrotic activity against CCl4-induced fibrosis in Kunming mouse assessed as decrease in steatosis at 20 mg/kg, po administered for 2 weeks post CCl-4 challenge by Mason staining based light microscopic analysis; type: functional, organism-based
[11] = tested on: Mus musculus; test: Antifibrotic activity against CCl4-induced fibrosis in Kunming mouse assessed as decrease in inflammatory cells infiltration at 20 mg/kg, po administered for 2 weeks post CCl-4 challenge by Masson staining based light microscopic analysis; type: functional, organism-based
[12] = tested on: Mus musculus; test: Antifibrotic activity against CCl4-induced fibrosis in Kunming mouse assessed as decrease in fiber accumulation at 20 mg/kg, po administered for 2 weeks post CCl-4 challenge by Masson staining based light microscopic analysis; type: functional, organism-based
[13] = tested on: Mus musculus; test: Antifibrotic activity against CCl4-induced fibrosis in Kunming mouse assessed as decrease in inflammatory cells infiltration at 20 mg/kg, po administered for 2 weeks post CCl-4 challenge by hematoxylin and eosin staining based light microscopic analysis; type: functional, organism-based
[14] = tested on: Mus musculus; test: Antifibrotic activity against CCl4-induced fibrosis in Kunming mouse assessed as loss of inflammatory cells at 40 mg/kg, po administered for 2 weeks post CCl-4 challenge by hematoxylin and eosin staining based light microscopic analysis; type: functional, organism-based
[15] = tested on: Mus musculus; test: Antifibrotic activity against CCl4-induced fibrosis in Kunming mouse assessed as loss of bile ductules at 40 mg/kg, po administered for 2 weeks post CCl-4 challenge by hematoxylin and eosin staining based light microscopic analysis; type: functional, organism-based
[16] = tested on: Mus musculus; test: Antifibrotic activity against CCl4-induced fibrosis in Kunming mouse assessed as loss of fiber accumulation at 40 mg/kg, po administered for 2 weeks post CCl-4 challenge by hematoxylin and eosin staining based light microscopic analysis; type: functional, organism-based
[17] = tested on: Mus musculus; test: Antifibrotic activity against CCl4-induced fibrosis in Kunming mouse assessed as loss of bile ductules at 40 mg/kg, po administered for 2 weeks post CCl-4 challenge by Masson staining based light microscopic analysis; type: functional, organism-based
[18] = tested on: Mus musculus; test: Antifibrotic activity against CCl4-induced fibrosis in Kunming mouse assessed as loss of inflammatory cells at 40 mg/kg, po administered for 2 weeks post CCl-4 challenge by Masson staining based light microscopic analysis; type: functional, organism-based
[19] = tested on: Mus musculus; test: Antifibrotic activity against CCl4-induced fibrosis in Kunming mouse assessed as decrease in steatosis at 20 mg/kg, po administered for 2 weeks post CCl-4 challenge by hematoxylin and eosin staining based light microscopic analysis; type: functional, organism-based
[20] = tested on: Mus musculus; test: Antifibrotic activity against CCl4-induced fibrosis in Kunming mouse assessed as loss of fiber accumulation at 40 mg/kg, po administered for 2 weeks post CCl-4 challenge by Masson staining based light microscopic analysis; type: functional, organism-based

Compound	inhibition at 10 µM [1] [%]	IC50 [2] [µM]	inhibition at 10 µM [3] [%]	other results
O=C(N/N=C/c1ccc(Cl)cc1)N1CCc2ncnc(Nc3cccc(Br)c3)c2C1	61.1	0.0275	72.5	–
O=C(N/N=C/c1cccnc1)N1CCc2ncnc(Nc3cccc(C(F)(F)F)c3)c2C1	41.2	–	63.2	–
CS(=O)(=O)c1ccc(/C=N/NC(=O)N2CCc3ncnc(Nc4cccc(C(F)(F)F)c4)c3C2)cc1	45.9	0.0358	61.5	–
O=C(N/N=C/c1ccccc1)N1CCc2ncnc(Nc3cccc(C(F)(F)F)c3)c2C1	48.3	–	57.4	–
O=C(N/N=C/c1cc([N+](=O)[O-])ccc1Cl)N1CCc2ncnc(Nc3ccc(F)c(Cl)c3)c2C1	72.1	0.0438	74.7	–
Cc1ccc(/C=N/NC(=O)N2CCc3ncnc(Nc4cccc(C(F)(F)F)c4)c3C2)cc1	72.6	0.0291	77.2	IC50 [4]: 1.51 µM; IC50 [5]: 1.14 µM
O=C(N/N=C/c1ccc(Cl)cc1Cl)N1CCc2ncnc(Nc3cccc(C(F)(F)F)c3)c2C1	58.5	0.0339	66.3	–
O=C(N/N=C/c1ccc(OC(F)(F)F)cc1)N1CCc2ncnc(Nc3cccc(Br)c3)c2C1	48.8	–	54.8	–
O=C(CCc1nc2ccccc2s1)N1CCc2ncnc(Cc3ccc(F)cc3)c2C1	68.4	0.0104	73.8	IC50 [6]: 0.0291 µM
O=C(N/N=C/c1ccc(OC(F)(F)F)cc1)N1CCc2ncnc(Nc3cccc(C(F)(F)F)c3)c2C1	67.1	0.0412	65	–
O=C(N/N=C/c1cc(F)c(F)cc1Cl)N1CCc2ncnc(Nc3cccc(Br)c3)c2C1	41.7	–	56.7	–
O=C(N/N=C/c1ccc(Cl)cc1)N1CCc2ncnc(Nc3ccc(F)c(Cl)c3)c2C1	81.5	0.0242	79.4	Activity [7]: 74.4%; IC50 [4]: 0.87 µM; Activity [8]: Active; IC50 [5]: 1.1 µM
O=C(N/N=C/c1ccc[nH]1)N1CCc2ncnc(Nc3cccc(C(F)(F)F)c3)c2C1	51.3	–	68.8	–
O=C(N/N=C/c1ccc(F)cc1Cl)N1CCc2ncnc(Nc3cccc(C(F)(F)F)c3)c2C1	55.2	0.0269	70.6	–
O=C(N/N=C/c1ccc(F)c(Cl)c1)N1CCc2ncnc(Nc3cccc(Br)c3)c2C1	45.1	–	60.3	–
O=C(N/N=C/c1ccco1)N1CCc2ncnc(Nc3cccc(C(F)(F)F)c3)c2C1	54.1	–	71.5	–
O=C(N/N=C/c1ccc(Cl)cc1)N1CCc2ncnc(Nc3cccc(C(F)(F)F)c3)c2C1	73.8	0.0153	83.7	Activity [9]: Active; Activity [10]: Active; Activity [11]: Active; Activity [12]: Active; Activity [13]: Active; Activity [14]: Active; Activity [15]: Active; Activity [16]: Active; Activity [17]: Active; IC50 [4]: 1.21 µM; Activity [18]: Active; Activity [8]: Active; Activity [19]: Active; IC50 [5]: 0.78 µM; Activity [20]: Active
O=C(N/N=C/c1ccc(O)c(Br)c1)N1CCc2ncnc(Nc3ccc(F)c(Cl)c3)c2C1	69	0.0313	72	–
O=C(N/N=C/c1cc(C(F)(F)F)cc(C(F)(F)F)c1)N1CCc2ncnc(Nc3cccc(Br)c3)c2C1	70.1	0.0291	62.1	–
CS(=O)(=O)c1ccc(/C=N/NC(=O)N2CCc3ncnc(Nc4cccc(Br)c4)c3C2)cc1	43.7	0.0347	55	–
O=C(N/N=C/c1cccc(C(F)(F)F)c1)N1CCc2ncnc(Nc3cccc(Br)c3)c2C1	51.8	0.0302	64.8	–
Cc1cc(C)c(/C=N/NC(=O)N2CCc3ncnc(Nc4ccc(F)c(Cl)c4)c3C2)c(C)c1	54	–	58.1	–
CS(=O)(=O)c1ccc(/C=N/NC(=O)N2CCc3ncnc(Nc4ccc(F)c(Cl)c4)c3C2)cc1	66.2	0.021	60.3	–
O=C(N/N=C/c1cccc(Br)c1)N1CCc2ncnc(Nc3cccc(C(F)(F)F)c3)c2C1	54.6	0.0353	68.1	–
O=C(N/N=C/c1cc(C(F)(F)F)cc(C(F)(F)F)c1)N1CCc2ncnc(Nc3cccc(C(F)(F)F)c3)c2C1	42.5	–	62.9	–
Cc1ccc(/C=N/NC(=O)N2CCc3ncnc(Nc4cccc(Br)c4)c3C2)cc1C	41.7	–	49.2	–
